Measurements from ChEMBL document CHEMBL1147645, “Design and synthesis of 2,3,4,9-tetrahydro-1H-carbazole and 1,2,3,4-tetrahydro-cyclopenta[b]indole derivatives as non-nucleoside inhibitors of hepatitis C virus NS5B RNA-dependent RNA polymerase” (Bioorg Med Chem Lett, 2006).
pIC50: −log10 of the molar value.

System: Huh-7
Assay: Cytotoxicity against Huh7 cells by MTS assay
Format: functional, cell-based
Settings: Homo sapiens

With CCCC1(C(=O)O)CCc2c1[nH]c1c(Cl)ccc(Cl)c21 (centres undefined) as the compound, how does the pIC50 read?
Its pIC50 is 4.37.

System: not listed separately
Assay: Permeability at pH 7.4 by PAMPA assay
Format: ADME
Settings: read-out: permeability

With CCCC1(C(=O)O)CCc2c1[nH]c1c(Cl)ccc(Cl)c21 (centres undefined) as the compound, how does the Papp read?
The Papp was 6.48 ×10⁻⁶ cm/s.

Molecular target: RNA-directed RNA polymerase (Hepacivirus hominis, UniProt O39930)
Sequence (O39930 whole entry): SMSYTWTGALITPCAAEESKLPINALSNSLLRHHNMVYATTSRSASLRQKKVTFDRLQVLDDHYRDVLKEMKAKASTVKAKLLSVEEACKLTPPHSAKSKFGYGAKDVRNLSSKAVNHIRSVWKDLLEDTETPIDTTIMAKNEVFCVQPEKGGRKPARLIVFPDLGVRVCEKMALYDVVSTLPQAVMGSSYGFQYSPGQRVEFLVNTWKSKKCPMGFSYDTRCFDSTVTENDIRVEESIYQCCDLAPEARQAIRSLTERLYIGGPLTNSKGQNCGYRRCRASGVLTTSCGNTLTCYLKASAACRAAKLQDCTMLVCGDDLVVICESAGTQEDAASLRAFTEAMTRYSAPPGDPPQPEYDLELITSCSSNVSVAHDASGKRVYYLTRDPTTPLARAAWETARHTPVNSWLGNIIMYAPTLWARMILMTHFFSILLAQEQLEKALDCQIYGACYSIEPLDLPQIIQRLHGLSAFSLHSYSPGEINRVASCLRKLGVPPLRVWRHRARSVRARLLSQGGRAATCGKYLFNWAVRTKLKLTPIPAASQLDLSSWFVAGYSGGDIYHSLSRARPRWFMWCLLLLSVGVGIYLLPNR
Assay: Inhibition of HCV 1b BK NS5B RNA polymerase
Parameters: species or system Hepatitis C virus (isolate BK)
Settings: not given

With CCCCC1(C(=O)O)CCc2c1[nH]c1c(C)cc(F)c(C#N)c21 (centres undefined) as the compound, how does the pIC50 read?
Its pIC50 is 5.82.

With CCCC1(C(=O)O)CCc2c1[nH]c1c(C)ccc(C#N)c21 (centres undefined) as the compound, how does the pIC50 read?
The pIC50 was 5.33.

With C=CCC1(C(=O)O)CCc2c1[nH]c1c(Cl)ccc(Cl)c21 (centres undefined) as the compound, how does the pIC50 read?
The pIC50 was 5.92.

With CCCC1(CC(=O)O)CCCc2c1[nH]c1c(F)ccc(C#N)c21 (centres undefined) as the compound, how does the pIC50 read?
Its pIC50 is 5.70.

With CCCC1(C(=O)O)CCCc2c1[nH]c1c(Cl)ccc(Cl)c21 (centres undefined) as the compound, how does the pIC50 read?
Its pIC50 is 5.49.

With CCCC1(C(=O)O)CCc2c1[nH]c1c(F)ccc(C#N)c21 (centres undefined) as the compound, how does the pIC50 read?
The pIC50 was 5.09.

With C=CCC1(C(=O)O)CCc2c1[nH]c1c(F)ccc(C#N)c21 (centres undefined) as the compound, how does the pIC50 read?
Its pIC50 is 4.84.

With CCCC1(C(=O)O)CCCc2c1[nH]c1c(Cl)ccc(C(F)(F)F)c21 (centres undefined) as the compound, how does the pIC50 read?
The pIC50 was 5.24.

With CCCC1(CC(=O)O)CCCc2c1[nH]c1c(F)c(F)ccc21 (centres undefined) as the compound, how does the pIC50 read?
The pIC50 was under 4.48.

With CCCC1(CC(=O)O)CCCc2c1[nH]c1c(C(N)=O)ccc(C#N)c21 (centres undefined) as the compound, how does the pIC50 read?
Its pIC50 is under 4.48.

With CCCC1(C(=O)O)CCCc2c1[nH]c1c(F)ccc(C#N)c21 (centres undefined) as the compound, how does the pIC50 read?
Its pIC50 is 5.00.

With CCCC1(CC(=O)O)CCCc2c1[nH]c1c(Cl)cc(Br)cc21 (centres undefined) as the compound, how does the pIC50 read?
The pIC50 was under 4.48.

With CCCCC1(C(=O)O)CCc2c1[nH]c1c(C)ccc(C#N)c21 (centres undefined) as the compound, how does the pIC50 read?
Its pIC50 is 5.34.

With CCCC1(CC(=O)O)CCCc2c1[nH]c1c(C#N)ccc(C#N)c21 (centres undefined) as the compound, how does the pIC50 read?
The pIC50 was 5.64.

With CCCC1(C(=O)O)CCCc2c1[nH]c1c(C)ccc(C#N)c21 (centres undefined) as the compound, how does the pIC50 read?
Its pIC50 is 4.82.

With CCCC1(CC(=O)O)CCCc2c1[nH]c1ccc(Cl)cc21 (centres undefined) as the compound, how does the pIC50 read?
Its pIC50 is under 4.48.

With CCCC1(CC(=O)O)CCCc2c1[nH]c1ccccc21 (centres undefined) as the compound, how does the pIC50 read?
The pIC50 was under 4.48.

With C=CCC1(C(=O)O)CCc2c1[nH]c1c(C)ccc(C#N)c21 (centres undefined) as the compound, how does the pIC50 read?
Its pIC50 is 4.96.

With CCCC1(CC(=O)O)OCCc2c1[nH]c1c(C)ccc(C#N)c21 (centres undefined) as the compound, how does the pIC50 read?
The pIC50 was 6.48.

With CCCCC1(C(=O)O)CCc2c1[nH]c1c(F)ccc(C#N)c21 (centres undefined) as the compound, how does the pIC50 read?
The pIC50 was 5.27.

With CCCC1(CC(=O)O)CCCc2c1[nH]c1c(C)ccc(C#N)c21 (centres undefined) as the compound, how does the pIC50 read?
The pIC50 was 5.68.

With CCCC1(CC(=O)O)CCCc2c1[nH]c1c(F)ccc(F)c21 (centres undefined) as the compound, how does the pIC50 read?
The pIC50 was under 4.48.

With C=CCC1(C(=O)O)CCc2c1[nH]c1c(C)cc(F)c(C#N)c21 (centres undefined) as the compound, how does the pIC50 read?
The pIC50 was 5.20.

With CCCC1(C(=O)O)CCc2c1[nH]c1c(C)cc(F)c(C#N)c21 (centres undefined) as the compound, how does the pIC50 read?
The pIC50 was 5.74.

With CCCC1(CC(=O)O)CCCc2c1[nH]c1cc(F)cc(F)c21 (centres undefined) as the compound, how does the pIC50 read?
Its pIC50 is 4.52.

With CCCC1(C(=O)O)CCc2c1[nH]c1c(Cl)ccc(Cl)c21 (centres undefined) as the compound, how does the pIC50 read?
Its pIC50 is 6.26.

With CCCCC1(C(=O)O)CCc2c1[nH]c1c(Cl)ccc(Cl)c21 (centres undefined) as the compound, how does the pIC50 read?
Its pIC50 is 5.72.
